Results from ChEMBL document CHEMBL1201862, “PubChem BioAssay data set” (2004).
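Assay format: 96-well plates, 48-hour exposure. The concentration for 50% growth inhibition is given as GI50.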 Calls of active or inactive are those of the source. No stated cut-off is given here; in the data, active = GI50 up to about 1.1 µM and inactive = higher.

What was measured:
Assay in all cases: DTP human tumour cell line panel, 48 h
SK-OV-3 = tested on: SK-OV-3
SN12C = tested on: SN12C
SK-MEL-2 = tested on: SK-MEL-2
HCT-15 = tested on: HCT-15
SNB-19 = tested on: SNB-19
SK-MEL-5 = tested on: SK-MEL-5
UO-31 = tested on: UO-31
HOP-62 = tested on: HOP-62
A549 = tested on: A549
SF-295 = tested on: SF-295
SF-539 = tested on: SF-539
LOX IMVI = tested on: LOX IMVI
U-251 = tested on: U-251
HOP-18 = tested on: HOP-18
HCC 2998 = tested on: HCC 2998
IGROV-1 = tested on: IGROV-1
XF498 = tested on: XF498
NCI-H226 = tested on: NCI-H226
RPMI-8226 = tested on: RPMI-8226
UACC-257 = tested on: UACC-257
HT-29 = tested on: HT-29
MCF7 = tested on: MCF7
Malme-3M = tested on: Malme-3M
NCI-H460 = tested on: NCI-H460
HCT-116 = tested on: HCT-116
SNB-78 = tested on: SNB-78
SNB-75 = tested on: SNB-75
CCRF-CEM = tested on: CCRF-CEM
HOP-92 = tested on: HOP-92
CAKI-1 = tested on: CAKI-1
MDA-N = tested on: MDA-N
OVCAR-8 = tested on: OVCAR-8
COLO 205 = tested on: COLO 205
OVCAR-5 = tested on: OVCAR-5
UACC-62 = tested on: UACC-62
MDA-MB-435 = tested on: MDA-MB-435
NCI/ADR-RES = tested on: NCI/ADR-RES
KM-20L2 = tested on: KM-20L2
SW-620 = tested on: SW-620
BT-549 = tested on: BT-549
DMS-273 = tested on: DMS-273
786-0 = tested on: 786-0
DU-145 = tested on: DU-145
K562 = tested on: K562
MDA-MB-231 = tested on: MDA-MB-231
MOLT-4 = tested on: MOLT-4
A498 = tested on: A498
NCI-H23 = tested on: NCI-H23
PC-3 = tested on: PC-3
EKVX = tested on: EKVX
NCI-H522 = tested on: NCI-H522
RXF 393 = tested on: RXF 393
HL-60 = tested on: HL-60
T47D = tested on: T47D
M19-MEL = tested on: M19-MEL
TK-10 = tested on: TK-10
Hs-578T = tested on: Hs-578T
SF-268 = tested on: SF-268
DLD-1 = tested on: DLD-1
ACHN = tested on: ACHN
M14 = tested on: M14
SK-MEL-28 = tested on: SK-MEL-28
OVCAR-4 = tested on: OVCAR-4
KM12 = tested on: KM12
OVCAR-3 = tested on: OVCAR-3
SR = tested on: SR

Measured: GI50

CC1=C(C)C(=O)O[C@@H]([C@](C)(O)[C@]2(O)CC[C@@]3(O)[C@@H]4C[C@H]5O[C@]56[C@@H](O)C=CC(=O)[C@]6(C)[C@H]4CC[C@]23C)C1
inactive: SK-OV-3 6400 nM | SNB-19 2170 nM | A549 4010 nM | SF-295 2990 nM | U-251 1880 nM | HCC 2998 1710 nM | NCI-H226 11000 nM | NCI-H460 1600 nM
137 nM: HCT-15
active: SN12C 1040 nM | SK-MEL-2 451 nM | SK-MEL-5 414 nM | UO-31 587 nM | HOP-62 1110 nM | SF-539 774 nM | LOX IMVI 133 nM | HOP-18 45.4 nM | IGROV-1 1010 nM | XF498 91.2 nM | RPMI-8226 95.9 nM | UACC-257 308 nM | HT-29 174 nM | MCF7 186 nM | Malme-3M 330 nM | HCT-116 182 nM | SNB-78 499 nM | SNB-75 46.8 nM | CCRF-CEM 85.1 nM | HOP-92 37.3 nM | CAKI-1 25 nM

CO[C@@]12[C@H](COC(N)=O)C3=C(C(=O)C(C)=C(N)C3=O)N1C[C@H]1[C@@H]2N1C (stereo partly specified) [PORFIROMYCIN]
inactive: MDA-N 12500 nM | OVCAR-8 3950 nM | SK-OV-3 4620 nM | COLO 205 2220 nM | SK-MEL-2 13500 nM | OVCAR-5 10200 nM | SNB-19 2350 nM | SK-MEL-5 1800 nM | UO-31 13900 nM | MDA-MB-435 12300 nM | NCI/ADR-RES 29400 nM | SF-539 3560 nM | U-251 1190 nM | KM-20L2 7980 nM | SW-620 1870 nM | BT-549 12200 nM | HOP-18 4750 nM | HCC 2998 1950 nM | 786-0 8570 nM | K562 7500 nM | IGROV-1 5620 nM | MDA-MB-231 9730 nM | A498 6310 nM | XF498 3610 nM | NCI-H226 8690 nM | RPMI-8226 8410 nM | PC-3 12600 nM | EKVX 12300 nM | NCI-H522 4590 nM | RXF 393 6310 nM | UACC-257 8280 nM | T47D 9200 nM | M19-MEL 2740 nM | HT-29 1420 nM | TK-10 16300 nM | Hs-578T 16600 nM | SF-268 3460 nM | DLD-1 9620 nM | Malme-3M 4100 nM | SK-MEL-28 12300 nM | HCT-116 2220 nM | OVCAR-4 9680 nM | SNB-78 9680 nM | KM12 6970 nM | HOP-92 5430 nM | OVCAR-3 6760 nM
2570 nM: HCT-15
active: SN12C 782 nM | UACC-62 466 nM | HOP-62 291 nM | A549 489 nM | SF-295 398 nM | LOX IMVI 794 nM | DMS-273 401 nM | DU-145 282 nM | MOLT-4 543 nM | NCI-H23 506 nM | HL-60 340 nM | MCF7 714 nM | ACHN 380 nM | M14 650 nM | NCI-H460 128 nM | SNB-75 1100 nM | CCRF-CEM 993 nM | SR 409 nM | CAKI-1 948 nM
